Assay results from US20060069132A1, “Azolecarboxamide herbicides” (priority 2004, published 2006).

Columns and labels:
[1] = system: cocklebur; assay: Test B pre-/postemergence herbicide test; type: in vivo, Xanthium strumarium; details: 500 g ai/ha
Source text: (§1) Seeds selected from barnyardgrass (Echinochloa crus-galli (L.) Beauv.), Surinam grass (Urochloa decumbens (Staph) R. D. Webster, previously named Brachiaria decumbens Stapf), cocklebur (Xanthium strumarium L.), corn (Zea mays L.), large crabgrass (Digitaria sanguinalis (L.) Scop.), giant foxtail (Setaria faberi Herim.), lambsquarters (Chenopodium album L.), morningglory (Ipomoea coccinea L.), pigweed (Amaranthus retroflexus L.), rice (Oryza sativa L.) and velvetleaf (Abutilon theophrasti Medik.) were planted and treated preemergence with test chemicals formulated in a non-phytotoxic solvent mixture which included a surfactant.
(§2) At the same time, plants selected from these crop and weed species and also blackgrass (Alopecurus myosuroides Huds.), wheat (Triticum aestivum L.) and wild oat (Avena fatua L.) were treated with postemergence applications of test chemicals formulated in the same manner. Plants ranged in height from 2 to 18 cm (1- to 4-leaf stage) for postemergence treatments. Plant species in the flooded paddy test consisted of rice (Oryza sativa L.), small flower umbrella sedge (Cyperus difformis L.), ducksalad (Heteranthera limosa (Sw.) Willd.) and barnyardgrass (Echinochloa crus-galli (L.) Beauv.) grown to the 2-leaf stage for testing. Treated plants and controls were maintained in a greenhouse for 13 to 15 days, after which time all species were compared to controls and visually evaluated. Plant response ratings, summarized in Table B, are based on a scale of 0 to 100 where 0 is no effect and 100 is complete control. A dash (-) response means no test result.

[2] = system: Surinam grass; assay: Test B pre-/postemergence herbicide test; type: in vivo, Urochloa decumbens; details: 500 g ai/ha
Source text: as §1, §2

[3] = system: giant foxtail; assay: Test B pre-/postemergence herbicide test; type: in vivo, Setaria faberi; details: 500 g ai/ha
Source text: as §1, §2

[4] = system: small flower umbrella sedge; assay: Test B flooded paddy test; type: in vivo, Cyperus difformis; details: 1000 g ai/ha, visual rating, scale 0 to 100 (0 no effect, 100 complete control), 13 to 15 days
Method: as §2

[5] = system: velvetleaf; assay: Test B pre-/postemergence herbicide test; type: in vivo, Abutilon theophrasti; details: 500 g ai/ha
Source text: as §1, §2

[6] = system: barnyardgrass; assay: Test B flooded paddy test; type: in vivo, Echinochloa crus-galli; details: 1000 g ai/ha, visual rating, scale 0 to 100 (0 no effect, 100 complete control), 13 to 15 days
Method: as §2

[7] = system: morningglory; assay: Test B pre-/postemergence herbicide test; type: in vivo, Ipomoea coccinea; details: 500 g ai/ha
Source text: as §1, §2

[8] = system: large crabgrass; assay: Test B pre-/postemergence herbicide test; type: in vivo, Digitaria sanguinalis; details: 500 g ai/ha
Source text: as §1, §2

[9] = system: corn; assay: Test B pre-/postemergence herbicide test; type: in vivo, Zea mays; details: 500 g ai/ha
Source text: as §1, §2

[10] = system: lambsquarters; assay: Test B pre-/postemergence herbicide test; type: in vivo, Chenopodium album; details: 500 g ai/ha
Source text: as §1, §2

[11] = system: barnyardgrass; assay: Test B pre-/postemergence herbicide test; type: in vivo, Echinochloa crus-galli; details: 500 g ai/ha
Source text: as §1, §2

[12] = system: ducksalad; assay: Test B flooded paddy test; type: in vivo, Heteranthera limosa; details: 1000 g ai/ha, visual rating, scale 0 to 100 (0 no effect, 100 complete control), 13 to 15 days
Method: as §2

[13] = system: wheat; assay: Test B postemergence herbicide test; type: in vivo, Triticum aestivum; details: Postemergence, 500 g ai/ha; visual rating after 13 to 15 days, scale 0 (no effect) to 100 (complete control)
Method: as §2

[14] = system: wild oat; assay: Test B postemergence herbicide test; type: in vivo, Avena fatua; details: Postemergence, 500 g ai/ha; visual rating after 13 to 15 days, scale 0 (no effect) to 100 (complete control)
Method: as §2

[15] = system: pigweed; assay: Test B pre-/postemergence herbicide test; type: in vivo, Amaranthus retroflexus; details: 500 g ai/ha
Source text: as §1, §2

[16] = system: blackgrass; assay: Test B postemergence herbicide test; type: in vivo, Alopecurus myosuroides; details: Postemergence, 500 g ai/ha; visual rating after 13 to 15 days, scale 0 (no effect) to 100 (complete control)
Method: as §2

[17] = system: rice; assay: Test B flooded paddy test; type: in vivo, Oryza sativa; details: 1000 g ai/ha, visual rating, scale 0 to 100 (0 no effect, 100 complete control), 13 to 15 days
Method: as §2

[18] = system: redroot pigweed; assay: Test A pre-/postemergence herbicide test; type: in vivo, Amaranthus retroflexus
Source text: (§3) Seeds of plant species selected from barnyardgrass (Echinochloa crus-galli (L.) Beauv.), downy bromegrass (Bromus tectorum L.), large crabgrass (Digitaria sanguinalis (L.) Scop.), giant foxtail (Setaria faberi Herrm.), morningglory (Ipomoea spp.), redroot pigweed (Amaranthus retroflexus L.) and velvetleaf (Abutilon theophrasti Medik.) were planted into a sandy loam soil and treated preemergence with a directed soil spray using test chemicals formulated in a non-phytotoxic solvent mixture which included a surfactant. At the same time plants selected from these species were also treated postemergence by spraying to runoff with test chemicals formulated.
(§4) Plants ranged in height from 2 to 10 cm and were in the one- to two-leaf stage for the postemergence treatment. Treated plants and untreated controls were maintained in a greenhouse for approximately ten days, after which time all treated plants were compared to untreated controls and visually evaluated for injury. Plant response ratings, summarized in Table A, are based on a 0 to 100 scale where 0 is no effect and 100 is complete control. A dash (-) response means no test results.

[19] = system: morningglory; assay: Test A pre-/postemergence herbicide test; type: in vivo, Ipomoea spp.
Source text: as §3, §4

[20] = system: large crabgrass; assay: Test A pre-/postemergence herbicide test; type: in vivo, Digitaria sanguinalis
Source text: as §3, §4

[21] = system: velvetleaf; assay: Test A pre-/postemergence herbicide test; type: in vivo, Abutilon theophrasti
Source text: as §3, §4

[22] = system: barnyardgrass; assay: Test A pre-/postemergence herbicide test; type: in vivo, Echinochloa crus-galli
Source text: as §3, §4

[23] = system: giant foxtail; assay: Test A pre-/postemergence herbicide test; type: in vivo, Setaria faberi
Source text: as §3, §4

[24] = Postemergence, visual rating after 13 to 15 days, scale 0 (no effect) to 100 (complete control)
[25] = Postemergence, 500 g ai/ha, 0 to 100 scale, 0 no effect, 100 complete control
[26] = Postemergence, 2000 g ai/ha, 0 to 100 scale, 0 no effect, 100 complete control
[27] = Preemergence, 500 g ai/ha, visual rating, 0 to 100 scale (0 no effect, 100 complete control)
[28] = Preemergence, 2000 g ai/ha, visual rating, 0 to 100 scale (0 no effect, 100 complete control)
[29] = preemergence, 500 g ai/ha, visual injury, 0 to 100 scale (0 no effect, 100 complete control)
[30] = Postemergence, 125 g ai/ha, 0 to 100 scale, 0 no effect, 100 complete control
[31] = preemergence, 125 g ai/ha, visual injury, 0 to 100 scale (0 no effect, 100 complete control)

Structure (SMILES): CCNC(=O)c1cccc(NC(=O)c2cc(C(C)(C)C)nn2CC(C)C)c1 [Compound 42]
- Plant response rating, Cocklebur [1, 24]: 20
- Cocklebur plant response rating ([1]; Preemergence, scale 0 to 100): 0
- Plant response rating, Surinam Grass [2, 24]: 20
- Surinam Grass plant response rating ([2]; Preemergence, scale 0 to 100): 20
- Plant response rating, Foxtail, Giant [3, 24]: 10
- Foxtail, Giant plant response rating ([3]; Preemergence, scale 0 to 100): 10
- Sedge, Umbrella plant response rating [4]: 50
- Plant response rating, Velvetleaf [5, 24]: 60
- Velvetleaf plant response rating ([5]; Preemergence, scale 0 to 100): 10
- Barnyardgrass plant response rating [6]: 0
- Plant response rating, Morningglory [7, 24]: 50
- Morningglory plant response rating ([7]; Preemergence, scale 0 to 100): 10
- Plant response rating, Crabgrass, Large [8, 24]: 70
- Crabgrass, Large plant response rating ([8]; Preemergence, scale 0 to 100): 70
- Plant response rating, Corn [9, 24]: 20
- Corn plant response rating ([9]; Preemergence, scale 0 to 100): 0
- Plant response rating, Lambsquarters [10, 24]: 70
- Lambsquarters plant response rating ([10]; Preemergence, scale 0 to 100): 80
- Plant response rating, Barnyardgrass [11, 24]: 20
- Barnyardgrass plant response rating ([11]; Preemergence, scale 0 to 100): 30
- Ducksalad plant response rating [12]: 50
- Plant response rating, Wheat [13]: 20
- Plant response rating, Oat, Wild [14]: 20
- Plant response rating, Pigweed [15, 24]: 70
- Pigweed plant response rating ([15]; Preemergence, scale 0 to 100): 40
- Plant response rating, Blackgrass [16]: 10
- Rice plant response rating [17]: 0

Structure (SMILES): Cn1nc(C(C)(C)C)cc1C(=O)Nc1cccc2c1CCCC2=NO [Compound 116]
- Pigweed plant response rating [18, 25]: 0
- Plant response rating, Pigweed [18, 26]: 0
- Pigweed plant response rating [18, 27]: 0
- Pigweed plant response rating [18, 28]: 0
- Morningglory plant response rating [19, 25]: 0
- Plant response rating, Morningglory [19, 26]: 0
- Morningglory plant response rating [19, 27]: 0
- Morningglory plant response rating [19, 28]: 10
- Crabgrass, Large plant response rating [20, 25]: 0
- Plant response rating, Crabgrass, Large [20, 26]: 10
- Crabgrass, Large plant response rating [20, 27]: 45
- Crabgrass, Large plant response rating [20, 28]: 80
- Velvetleaf plant response rating [21, 25]: 0
- Plant response rating, Velvetleaf [21, 26]: 0
- Velvetleaf plant response rating [21, 27]: 0
- Velvetleaf plant response rating [21, 28]: 0
- Barnyardgrass plant response rating [22, 25]: 0
- Plant response rating, Barnyardgrass [22, 26]: 25
- Barnyardgrass plant response rating [22, 27]: 35
- Barnyardgrass plant response rating [22, 28]: 70
- Foxtail, Giant plant response rating [23, 25]: 0
- Plant response rating, Foxtail, Giant [23, 26]: 0
- Foxtail, Giant plant response rating [23, 27]: 20
- Foxtail, Giant plant response rating [23, 28]: 35

Structure (SMILES): CCNC(=O)c1cccc(NC(=O)c2cn(CC)nc2C(F)(F)F)c1 [Compound 172]
- Pigweed plant response rating [18, 25]: 25
- Plant response rating, Pigweed [18, 26]: 60
- Pigweed plant response rating [18, 28]: 40
- Pigweed plant response rating [18, 29]: 0
- Morningglory plant response rating [19, 25]: 10
- Plant response rating, Morningglory [19, 26]: 10
- Morningglory plant response rating [19, 28]: 0
- Morningglory plant response rating [19, 29]: 0
- Crabgrass, Large plant response rating [20, 25]: 0
- Plant response rating, Crabgrass, Large [20, 26]: 0
- Crabgrass, Large plant response rating [20, 28]: 0
- Crabgrass, Large plant response rating [20, 29]: 0
- Velvetleaf plant response rating [21, 25]: 5
- Plant response rating, Velvetleaf [21, 26]: 15
- Velvetleaf plant response rating [21, 28]: 0
- Velvetleaf plant response rating [21, 29]: 0
- Barnyardgrass plant response rating [22, 25]: 0
- Plant response rating, Barnyardgrass [22, 26]: 0
- Barnyardgrass plant response rating [22, 28]: 0
- Barnyardgrass plant response rating [22, 29]: 0
- Foxtail, Giant plant response rating [23, 25]: 0
- Plant response rating, Foxtail, Giant [23, 26]: 0
- Foxtail, Giant plant response rating [23, 28]: 0
- Foxtail, Giant plant response rating [23, 29]: 0

Structure (SMILES): CCOC(=O)c1ccc(F)c(NC(=O)c2nc(C(C)(C)C)nn2CC)c1 [Compound 451]
- Pigweed plant response rating [18, 30]: 10
- Pigweed plant response rating [18, 25]: 50
- Pigweed plant response rating [18, 31]: 0
- Pigweed plant response rating [18, 29]: 0
- Morningglory plant response rating [19, 30]: 20
- Morningglory plant response rating [19, 25]: 20
- Morningglory plant response rating [19, 31]: 0
- Morningglory plant response rating [19, 29]: 5
- Crabgrass, Large plant response rating [20, 30]: 10
- Crabgrass, Large plant response rating [20, 25]: 30
- Crabgrass, Large plant response rating [20, 31]: 5
- Crabgrass, Large plant response rating [20, 29]: 25
- Velvetleaf plant response rating [21, 30]: 20
- Velvetleaf plant response rating [21, 25]: 30
- Velvetleaf plant response rating [21, 31]: 0
- Velvetleaf plant response rating [21, 29]: 20
- Barnyardgrass plant response rating [22, 30]: 10
- Barnyardgrass plant response rating [22, 25]: 20
- Barnyardgrass plant response rating [22, 31]: 15
- Barnyardgrass plant response rating [22, 29]: 55
- Foxtail, Giant plant response rating [23, 30]: 10
- Foxtail, Giant plant response rating [23, 25]: 20
- Foxtail, Giant plant response rating [23, 31]: 5
- Foxtail, Giant plant response rating [23, 29]: 45

Structure (SMILES): CCNC(=O)c1ccnc(NC(=O)c2cn(C(C)(C)C)nc2CC)c1 [Compound 452]
- Pigweed plant response rating [18, 30]: 20
- Pigweed plant response rating [18, 25]: 70
- Pigweed plant response rating [18, 31]: 10
- Pigweed plant response rating [18, 29]: 65
- Morningglory plant response rating [19, 30]: 20
- Morningglory plant response rating [19, 25]: 30
- Morningglory plant response rating [19, 31]: 0
- Morningglory plant response rating [19, 29]: 10
- Crabgrass, Large plant response rating [20, 30]: 10
- Crabgrass, Large plant response rating [20, 25]: 20
- Crabgrass, Large plant response rating [20, 31]: 20
- Crabgrass, Large plant response rating [20, 29]: 45
- Velvetleaf plant response rating [21, 30]: 20
- Velvetleaf plant response rating [21, 25]: 30
- Velvetleaf plant response rating [21, 31]: 0
- Velvetleaf plant response rating [21, 29]: 5
- Barnyardgrass plant response rating [22, 30]: 10
- Barnyardgrass plant response rating [22, 25]: 35
- Barnyardgrass plant response rating [22, 31]: 15
- Barnyardgrass plant response rating [22, 29]: 70
- Foxtail, Giant plant response rating [23, 30]: 10
- Foxtail, Giant plant response rating [23, 25]: 25
- Foxtail, Giant plant response rating [23, 31]: 5
- Foxtail, Giant plant response rating [23, 29]: 45
